According to patent publication US20100120763A1, “IMIDAZO[5,1-C][1,2,4]BENZOTRIAZINE DERIVATIVES AS INHIBITORS OF PHOSPHODIESTERASES” (priority 2008, published 2010):
pIC50: −log10 of the molar value.

What was measured:
[1] = target: T1, PDE10A (Homo sapiens, UniProt Q9Y233); test: Inhibition of recombinant PDE10A (baculovirus/SF21 system), [3H]-cAMP SPA; format: biochemical; conditions: recombinant PDE10A1, cytosolic; 0.1 μM [3H]-cAMP, 37° C., 30 minutes; read-out: PDE10A IC50
T1 construct: made in house; host or cells: SF21 insect cells (baculovirus)
T1 sequence (Q9Y233 1-779 isoform Q9Y233-1): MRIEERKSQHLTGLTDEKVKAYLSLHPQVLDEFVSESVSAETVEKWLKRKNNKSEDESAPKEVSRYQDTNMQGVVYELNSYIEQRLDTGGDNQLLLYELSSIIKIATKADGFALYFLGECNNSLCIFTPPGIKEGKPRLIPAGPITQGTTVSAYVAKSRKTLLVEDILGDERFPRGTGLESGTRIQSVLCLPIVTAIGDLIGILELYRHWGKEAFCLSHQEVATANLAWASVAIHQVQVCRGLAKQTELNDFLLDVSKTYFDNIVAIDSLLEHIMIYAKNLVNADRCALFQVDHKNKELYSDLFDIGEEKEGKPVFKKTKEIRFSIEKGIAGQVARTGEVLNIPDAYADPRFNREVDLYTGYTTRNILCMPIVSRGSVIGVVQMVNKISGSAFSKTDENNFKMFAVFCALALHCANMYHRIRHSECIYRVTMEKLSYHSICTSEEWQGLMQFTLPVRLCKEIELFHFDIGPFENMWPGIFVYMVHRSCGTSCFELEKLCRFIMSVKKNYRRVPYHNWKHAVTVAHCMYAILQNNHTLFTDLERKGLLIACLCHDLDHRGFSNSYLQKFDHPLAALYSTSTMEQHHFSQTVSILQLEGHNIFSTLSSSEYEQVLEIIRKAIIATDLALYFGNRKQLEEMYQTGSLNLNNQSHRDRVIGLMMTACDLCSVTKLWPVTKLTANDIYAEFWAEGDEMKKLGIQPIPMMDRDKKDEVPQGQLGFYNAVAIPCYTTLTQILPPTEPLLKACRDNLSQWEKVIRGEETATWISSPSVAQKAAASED
Description: Inhibition of Recombinant PDE10A (Baculovirus/SF21 System)
The gene was than inserted into a baculovirus vector, ligated with the baculovirus DNA. The enzyme-protein was expressed in SF21-cells. The enzyme was isolated from these cells by harvesting the cells by an centrifugation at 500 g to collect the cells.
The cells were resuspended in 50 mM Tris-HCl/1 mM EDTA/250 mM Sucrose buffer, pH=7.4 (Sigma, Deisenhofen, Germany; Merck, Darmstadt, Germany) and lysed by sonification of the cells (three times for 15 seconds, Labsonic U, Fa. Braun, Degersheim, Switzerland, level “high”). The cytosolic PDE10A was obtained by a centrifugation at 48,000 g for 1 h in the supernatant and stored at −70° C.
PDE activity was determined in a one step procedure in microtiter plates. The reaction mixture of 100 μl contained 50 mM Tris-HCl/5 mM MgCl2 buffer (pH=7.4, Sigma, Deisenhofen, Germany; Merck, Darmstadt, Germany) 0.1 μM [3H]-cAMP (Amersham, Buckinghamshire, UK) and the enzyme. Non-specific enzyme activity was determined without the enzyme. The reaction was initiated by addition of the substrate solution and was carried out at 37° C. for 30 minutes. Enzymatic activity then was stopped by addition of 25 μl Ysi-SPA-beads (Amersham-Pharmacia). One hour later the mixture was measured in a liquid scintillation counter for microtiter plates (Microbeta Trilux). The Biomek 2000 (Beckman) was used routinely for pipetting of the incubation mixture. […] For determination of IC50 values the Hill-plot, 2-parameter-model, was used.

[2] = target: T2, PDE2A (Homo sapiens, UniProt O00408); test: Inhibition of recombinant PDE2A (expressed in baculovirus/SF21-cells), [3H]-cAMP SPA; format: biochemical
T2 construct: made in house; host or cells: SF21 insect cells (baculovirus)
T2 sequence (O00408 whole entry): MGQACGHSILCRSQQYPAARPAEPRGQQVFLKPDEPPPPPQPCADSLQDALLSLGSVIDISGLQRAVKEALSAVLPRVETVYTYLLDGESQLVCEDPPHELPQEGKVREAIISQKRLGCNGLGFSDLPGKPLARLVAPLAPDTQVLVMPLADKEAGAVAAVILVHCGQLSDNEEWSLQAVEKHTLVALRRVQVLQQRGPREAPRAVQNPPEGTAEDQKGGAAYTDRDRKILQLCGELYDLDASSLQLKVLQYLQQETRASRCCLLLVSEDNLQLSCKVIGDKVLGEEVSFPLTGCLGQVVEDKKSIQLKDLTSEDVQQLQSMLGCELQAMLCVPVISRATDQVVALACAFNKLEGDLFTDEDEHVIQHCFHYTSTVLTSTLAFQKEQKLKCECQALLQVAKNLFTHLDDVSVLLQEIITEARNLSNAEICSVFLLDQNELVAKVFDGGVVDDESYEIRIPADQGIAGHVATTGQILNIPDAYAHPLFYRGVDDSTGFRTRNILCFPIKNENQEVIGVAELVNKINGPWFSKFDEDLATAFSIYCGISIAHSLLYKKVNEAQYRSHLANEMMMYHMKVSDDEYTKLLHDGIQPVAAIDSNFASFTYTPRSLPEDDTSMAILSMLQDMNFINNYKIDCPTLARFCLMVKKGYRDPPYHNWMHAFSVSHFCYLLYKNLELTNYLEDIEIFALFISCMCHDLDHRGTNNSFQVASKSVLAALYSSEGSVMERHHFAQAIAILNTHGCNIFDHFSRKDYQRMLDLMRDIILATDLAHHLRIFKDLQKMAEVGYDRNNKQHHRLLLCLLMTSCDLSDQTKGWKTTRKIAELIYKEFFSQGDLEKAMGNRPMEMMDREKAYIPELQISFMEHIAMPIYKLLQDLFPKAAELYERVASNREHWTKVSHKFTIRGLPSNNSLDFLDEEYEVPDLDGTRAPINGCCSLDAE
Description: Inhibition of Recombinant PDE2A (Expressed in Baculovirus/SF21-Cells)
PDE2A (NM002599) was cloned and the gene was inserted in the baculovirus and the enzyme-protein expressed in SF21-cells. The enzyme was isolated from these cells by harvesting the cells by an centrifugation at 200 g to collect the cells. The cells were resuspended in 50 mM Tris-HCl/5 mM MgCl2 buffer (pH=7.4) (Sigma, Deisenhofen, Germany; Merck, Darmstadt, Germany) and lysed by a sonication of the cells (three times for 15 seconds, Labsonic U, Fa. Braun, Degersheim, Switzerland, level “high”). The membrane fraction of PDE2A was obtained by a centrifugation at 48 000 g for 1 h, resuspended in buffer and stored at −70° C.
PDE2A activity was determined in a one step procedure in microtiterplates. The reaction mixture of 100 μl contained 50 mM Tris-HCl/5 mM MgCl2 buffer (pH=7.4) (Sigma, Deisenhofen, Germany; Merck, Darmstadt, Germany), 0.5 μM [3H]-cAMP (Amersham, Buckinghamshire, UK), 1000 nM cGMP and the enzyme. Non-specific enzyme activity was tested in the absence of cGMP. The reaction was initiated by addition of the substrate solution and was carried out at 37° C. for 30 minutes. Enzymatic activity then was stopped by addition of 25 μl SPA-beads (Amersham-Pharmacia). One hour later the mixture was measured in a liquid scintillation counter for microtiterplates (Microbeta Trilux). For pipetting of the incubation mixture the robot Biomek (Fa. Beckman) was routinely used.
For determination of IC50 values the Hill-plot, 2-parameter-model, was used.

pIC50 [1] | pIC50 [2] | Compound
8.03 | 7.44 | COc1cc(F)c2nnc3c(C)nc(-c4sccc4C)n3c2c1 [Example 81, 6-fluoro-8-methoxy-3-methyl-1-(3-methylthiophen-2-yl)imidazo[5,1-c][1,2,4]benzotriazine]
8.07 | 8.48 | COc1ccc(Cl)c(-c2nc(C)c3nnc4c(F)cc(OC)cc4n23)c1 [Example 78, 1-(2-chloro-5-methoxyphenyl)-6-fluoro-8-methoxy-3-methylimidazo[5,1-c][1,2,4]benzotriazine]
7.48 | 6.87 | Cc1cn(-c2ccc3nnc4c(C)nc(CC(C)C)n4c3c2)c(CC(C)C)n1 [Example 182, 1-Isobutyl-8-(2-isobutyl-4-methyl-imidazol-1-yl)-3-methyl-imidazo[5,1-c][1,2,4]benzotriazine]
8.73 | 6.53 | COc1cc(OC)c2nnc3c(C)nc(-c4c(C)nn(C)c4C)n3c2c1 [Example 52, 6,8-dimethoxy-3-methyl-1-(1,3,5-trimethyl-1H-pyrazol-4-yl)imidazo[5,1-c][1,2,4]benzotriazine]
8.02 | 8.03 | COc1ccc(F)c(-c2nc(C)c3nnc4c(F)cc(OC)cc4n23)c1 [Example 76, 6-fluoro-1-(2-fluoro-5-methoxyphenyl)-8-methoxy-3-methylimidazo[5,1-c][1,2,4]benzotriazine]
7.21 | 5.31 | COc1cc(F)cc2c1nnc1c(C)nc(-c3ccncc3)n12 [Example 129, 8-fluoro-6-methoxy-3-methyl-1-pyridin-4-ylimidazo[5,1-c][1,2,4]benzotriazine]
7.92 | 6.93 | COc1cc(F)cc2c1nnc1c(C)nc(-c3cc(OC(F)(F)F)ccc3Cl)n12 [Example 125, 1-[2-chloro-5-(trifluoromethoxy)phenyl]-8-fluoro-6-methoxy-3-methylimidazo[5,1-c][1,2,4]benzotriazine]
6.21 | 6.09 | COc1cc(F)c2nnc3c(C)nc(-c4c(C)noc4C)n3c2c1 [Example 89, 1-(3,5-dimethylisoxazol-4-yl)-6-fluoro-8-methoxy-3-methylimidazo[5,1-c][1,2,4]benzotriazine]
7.46 | 7.26 | COc1cc(F)c2nnc3c(C)nc(-c4ccc(F)cc4C)n3c2c1 [Example 69, 6-fluoro-1-(4-fluoro-2-methylphenyl)-8-methoxy-3-methylimidazo[5,1-c][1,2,4]benzotriazine]
6.70 | 7.22 | COc1cc(F)c2nnc3c(C)nc(-c4cc(C(F)(F)F)ccc4Cl)n3c2c1 [Example 82, 1-[2-chloro-5-(trifluoromethyl)phenyl]-6-fluoro-8-methoxy-3-methylimidazo[5,1-c][1,2,4]benzotriazine]
7.51 | 7.99 | CCOc1ccc(Cl)c(-c2nc(C)c3nnc4c(F)cc(OC)cc4n23)c1 [Example 77, 1-(2-chloro-5-ethoxyphenyl)-6-fluoro-8-methoxy-3-methylimidazo[5,1-c][1,2,4]benzotriazine]
8.48 | 6.76 | COc1cccc2c1nnc1c(C)nc(-c3ccccc3C)n12 [Example 60, 6-methoxy-3-methyl-1-(2-methylphenyl)imidazo[5,1-c][1,2,4]benzotriazine]
7.41 | 5.79 | COc1cncc(-c2nc(C)c3nnc4c(OC)cc(F)cc4n23)c1 [Example 122, 8-fluoro-6-methoxy-1-(5-methoxypyridin-3-yl)-3-methylimidazo[5,1-c][1,2,4]benzotriazine]
8.27 | 6.77 | COc1cc(F)cc2c1nnc1c(C)nc(-c3cc(Cl)ccc3C)n12 [Example 104, 1-(5-chloro-2-methylphenyl)-8-fluoro-6-methoxy-3-methylimidazo[5,1-c][1,2,4]benzotriazine]
7.82 | 8.08 | COc1cc(F)c2nnc3c(C)nc(-c4cc(Cl)ccc4C)n3c2c1 [Example 79, 1-(5-chloro-2-methylphenyl)-6-fluoro-8-methoxy-3-methylimidazo[5,1-c][1,2,4]benzotriazine]
8.10 | 6.47 | COc1cc(F)cc2c1nnc1c(C)nc(-c3cc(Cl)ccc3F)n12 [Example 106, 1-(5-chloro-2-fluorophenyl)-8-fluoro-6-methoxy-3-methylimidazo[5,1-c][1,2,4]benzotriazine]
7.77 | 7.19 | COc1cccc(-c2nc(C)c3nnc4c(F)cc(OC)cc4n23)c1 [Example 67, 6-fluoro-8-methoxy-1-(3-methoxyphenyl)-3-methylimidazo[5,1-c][1,2,4]benzotriazine]
8.04 | 4.70 | COc1cccc(-c2nc(C)c3nnc4c(OC)cc(F)cc4n23)c1 [Example 99, 8-fluoro-6-methoxy-1-(3-methoxyphenyl)-3-methylimidazo[5,1-c][1,2,4]benzotriazine]
7.36 | 7.25 | COc1cc(F)c2nnc3c(C)nc(-c4sc(C)nc4C)n3c2c1 [Example 91, 1-(2,4-dimethyl-1,3-thiazol-5-yl)-6-fluoro-8-methoxy-3-methylimidazo[5,1-c][1,2,4]benzotriazine]
7.60 | 5.62 | COc1cc(F)cc2c1nnc1c(C)nc(-c3cnccc3C)n12 [Example 123, 8-fluoro-6-methoxy-3-methyl-1-(4-methylpyridin-3-yl)imidazo[5,1-c][1,2,4]benzotriazine]
8.69 | 6.23 | COc1cc(OC)c2nnc3c(C)nc(-c4ccncc4C)n3c2c1 [Example 47, 6,8-dimethoxy-3-methyl-1-(3-methylpyridin-4-yl)-imidazo[5,1-c][1,2,4]benzotriazine]
8.08 | 6.35 | COc1cccc2c1nnc1c(C)nc(-c3ccncc3C)n12 [Example 62, 6-methoxy-3-methyl-1-(3-methylpyridin-4-yl)imidazo[5,1-c][1,2,4]benzotriazine]
7.66 | 6.35 | COc1cc(O)cc2c1nnc1c(C)nc(-c3cnccc3C)n12 [Example 149, 6-methoxy-3-methyl-1-(4-methylpyridin-3-yl)benzo[e]imidazo[5,1-c][1,2,4]triazin-8-ol]
8.08 | 7.26 | CCOc1ccc(Cl)c(-c2nc(C)c3nnc4c(OC)cc(F)cc4n23)c1 [Example 108, 1-(2-chloro-5-ethoxyphenyl)-8-fluoro-6-methoxy-3-methylimidazo[5,1-c][1,2,4]benzotriazine]
8.73 | 6.20 | COc1cc(F)cc2c1nnc1c(C)nc(-c3ccc(C)cc3Cl)n12 [Example 112, 1-(2-chloro-4-methylphenyl)-8-fluoro-6-methoxy-3-methylimidazo[5,1-c][1,2,4]benzotriazine]
6.60 | 6.51 | COc1cc(F)c2nnc3c(C)nc(-c4ccc(F)nc4C)n3c2c1 [Example 93, 6-fluoro-1-(6-fluoro-2-methylpyridin-3-yl)-8-methoxy-3-methylimidazo[5,1-c][1,2,4]benzotriazine]
7.30 | 8.16 | Cc1nc(-c2cc(Cl)ccc2Cl)n2c1nnc1ccc(N3CCCCC3)cc12 [Example 180, 1-(2,5-Dichloro-phenyl)-3-methyl-8-piperidin-1-yl-imidazo[5,1-c][1,2,4]benzotriazine]
7.92 | 8.11 | Cc1nc(-c2ccccc2Cl)n2c1nnc1ccc(N3CCCCC3)cc12 [Example 183, 1-(2-Chloro-phenyl)-3-methyl-8-piperidin-1-yl-imidazo[5,1-c][1,2,4]benzotriazine]
8.40 | 6.36 | COc1cc(N2CCOCC2)cc2c1nnc1c(C)nc(-c3ccncc3C)n12 [Example 63, 6-methoxy-3-methyl-1-(3-methylpyridin-4-yl)-8-morpholin-4-ylimidazo[5,1-c][1,2,4]benzotriazine]
